Data: patent US6486127B1, “Compositions comprising D-chiro inositol and lipid lowering compounds and methods of treatment thereof” (Insmed, Incorporated, priority 2001, dated 2002)
Entries after “also recorded” stand apart in the source; their conditions may differ.

Columns and labels:
[1] = Randomized placebo-controlled clinical trial of D-chiro-inositol with sulfonylureas: glycemic markers (HbA1c, fructosamine, fasting glucose); assay type: in vivo, human; conditions: for Difference in HbA1c change between D-chiro-inositol and placebo: baseline to endpoint
Protocol: The objective of this study was to assess the efficacy and safety of D-chiro-inositol when administered as a single oral dose of 1200 mg/day compared to placebo, each in combination with sulfonylureas, for 3 months. Patients were required to have been on sulfonylureas for 3 months prior to study entry without reaching their target dose or with a suboptimal response.
(§1) This multicenter, double-blind, parallel-group, placebo-controlled, randomized, fixed-dose clinical study was designed to evaluate 1200 mg/day D-chiro-inositol versus placebo in 270 obese patients with type 2 diabetes mellitus who had been receiving sulfonylureas for at least 3 months without reaching their target or with suboptimal response.
(§2) The study involved 5 scheduled visits. The first visit was the screening visit, followed by a baseline visit up to 2 weeks later. Patients were randomized at the baseline visit, half to 1200 mg/day D-chiro-inositol and half to placebo, and subsequently began 13 weeks of treatment with blinded study medication. There were 3 visits for safety and efficacy assessments, at 4, 8, and 13 weeks after beginning treatment. The 13-week visit was the final visit. Patients arrived at the investigational site in a fasted state for all visits. Assessments were to be done at the same time of day at each visit by the same responsible personnel. Medication was taken once a day at the same time of morning, except on visit days, on which the dose was delayed until just after fasting blood samples had been collected.
Patients receiving D-chiro-inositol received four 300 mg capsules once daily for a total daily dose of 1200 mg; placebo patients took 4 placebo capsules once daily. Doses were taken orally, generally in the mornings. Patients were instructed to take their dose in the morning at the same time each day, except on visit days. On visit days, dosing was to be done at the clinic. No instructions were given regarding when to take medication in relation to meals on non-visit days.
(§3) Biomarkers: A meal tolerance test (MTT) was performed at baseline (Visit 2) and the final visit (Visit 5). In addition, blood was drawn at every visit for assessment of fasting glucose and insulin, HbA1c, C-peptide, fructosamine, FFA, triglycerides, total cholesterol, HDL, VLDL, LDL, and Apo-B levels.
Primary Efficacy Variable(s) and Analyses. The primary analysis was based on the change from baseline to endpoint in HbA1c level using the modified ITT and evaluable study populations. The analysis was done using an analysis of covariance (ANCOVA) model with treatment group and the baseline HbA1c value as predictors.
(§4) Secondary Efficacy Variable (s) and Analyses. Since all secondary efficacy parameters were continuous, they were analyzed in the same manner as described above for the primary efficacy parameter, with treatment group and baseline values for the relevant parameter used as predictors.

[2] = Same clinical trial: insulin during meal tolerance test (MTT); assay type: in vivo, human
Protocol: Changes in area-under-the-curve (AUC) and 120-minute insulin and glucose levels during the mcal tolerance test (MTT).
as §1, §2, §3
as §4, with “predictors. These secondary efficacy parameters included:” for “predictors.”
AUC (and 120-minute) insulin and glucose levels during the MTT;

[3] = Same clinical trial: fasting serum lipids (cholesterol, LDL, Apo-B, FFA); assay type: in vivo, human
Protocol: Changes in levels of triglycerides, total cholesterol, high-density lipoproteins (HDL), low-density lipoproteins (LDL), very-low-density lipoproteins (VLDL), apolipoprotein B (Apo-B), and free fatty acids (FFA).
as §1, §2, §3
as §4, with “predictors. These secondary efficacy parameters included:” for “predictors.”
Total cholesterol, triglycerides, HDL, LDL, VLDL, Apo-B, and FFA levels;

[4] = Subgroup analysis of the clinical trial: lipid lowering drug / D-chiro-inositol effects on LDL cholesterol; assay type: in vivo, human; conditions: type 2 diabetic patients on sulfonylurea, with or without lipid lowering medication
Protocol: Due to the observation of lipid lowering effects seen in the DCI group, the clinical trial described in EXAMPLE 1 was further analyzed for synergistic interactions between D-chiro-inositol and lipid lowering medications. Certain patients within the trial were treated according to standard of care with HMC-CoA inhibitors (LIPITOR®, LESCOL®, ZOCOR®, MEVACOR®, PRAVACHOL®), gemfibrozil, or a combination of HMC-CoA and gemfibrozil. No inclusion or exclusion criteria were established for the efficacy of the lipid lowering drug efficacy in the patient population. As stated supra, these patients were being sub optimally treated with a sulfonylurea prior to beginning the clinical trial. The patients could not change their lipid lowering dose and/or regimen during the length of the study.

[5] = streptozotocin-treated rats, obese Zucker rats, or normal rats given a glucose load; cited from earlier work
[6] = oral or intravenous route; cited from earlier work
[7] = evaluable patients with FPG ≦ 180 mg/dL
[8] = patients with FPG ≦ 180 mg/dL, 1200 mg/day oral plus sulfonylurea
[9] = MTT, evaluable patients with FPG ≦ 180 mg/dL
[10] = MTT, evaluable patients, 1200 mg/day plus sulfonylurea
[11] = evaluable patients, 1200 mg/day plus sulfonylurea

## OC1C(O)C(O)C(O)C(O)C1O [D-chiro-inositol]
[1]; [7]
  Fasting glucose, mean change: 12.67 mg/dL
  Fructosamine, mean change: -15.22 µmol/L
[1]; evaluable patients with FPG≦180 mg/dL, stated as a decrease
  Decrease in mean HbA1c level from baseline to endpoint: 0.53%
[1]; evaluable patients, LOCF at endpoint (13 weeks), 1200 mg/day oral plus sulfonylurea
  Mean change in HbA1c from baseline to endpoint, mean (SD): −0.16 (1.03) %
[1]; evaluable population
  Difference in HbA1c change between D-chiro-inositol and placebo: 0.36%
[1]; evaluable population, p=0.159 vs placebo
  Decrease in mean fructosamine levels: 5.32 µmol/L
[1]; evaluable population, stated as a decrease
  Decrease in mean HbA1c levels from baseline to endpoint: 0.16%
[1]; patients with FPG ≦ 180 mg/dL, LOCF at endpoint, 1200 mg/day oral plus sulfonylurea
  Mean change in HbA1c from baseline to endpoint, mean (SD): −0.53 (1.03) %
[1]; [8]
  Mean change in HbA1c from baseline to Week 4, mean (SD): −0.47 (0.68) %
  Mean change in HbA1c from baseline to Week 8, mean (SD): −0.57 (0.82) %
[1]; patients with FPG≦180 mg/dL
  Difference in HbA1c change between D-chiro-inositol and placebo: 0.80%
[2]; DCI+SU group
  Change in insulin AUC from baseline to endpoint, median of individual subjects (FIG. 2): slightly increased the insulin AUC
[2]; [9]
  120-min. insulin, mean change: 5.09 μU/mL
  AUC insulin, mean change: 1070.8 μU/mL·hr
[2]; [10]
  120-min. insulin, mean change at endpoint: 3.50 μU/mL
  AUC insulin, mean change at endpoint: 484.4 μU/mL·hr
[2]; subjects with fasting blood glucose ≦180 mg/dl, DCI+SU, 13 weeks, listed as DCI
  Insulin response to meal tolerance test over the treatment period (FIGS. 1A, 1B): maintained this response after the 13 week course of treatment; also recorded: maintains a constant insulin response over the testing period
[3]; [7]
  Apo-B, mean change: -4.00 mg/dL
  Cholesterol, mean change: -5.31 mg/dL
  LDL, mean change: -4.14 mg/dL
[3]; evaluable patients with FPG>180 mg/dL, p=0.036 vs placebo
  Decrease in LDL: 2.02 mg/dL
[3]; [11]
  Apo-B, mean change at endpoint: -1.26 mg/dL
  Cholesterol, mean change at endpoint: -2.74 mg/dL
  FFA, mean change at endpoint: −0.07 mEq/L
  LDL, mean change at endpoint: -2.95 mg/dL
[4]
  Effect on LDL cholesterol (FIG. 3): significantly reduced the increase of LDL cholesterol
[5]
  Glycemic control: significantly improved glyceimic control
[6]
  Disappearance rate of plasma glucose and insulin: significantly increased the disappearance rate of both plasma glucose and insulin
